According to PubChem BioAssay AID2060507 (Molecular Pharmacology Branch, DTP, NCI, 2025):

Tested on: 519858-162-T-J1-PDC complex spheroid viability
Experiment: Anticancer human tumor 519858-162-T-J1-PDC patient-derived colon adenocarcinoma cell line growth inhibition [GQUAD]
Details: for IC50: curve of first compound; for viability, T/C: stronger effect = lower value; active means viability on the fitted dose curve at most 10% of control; inactive means the rest
How it was run: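 Viability of tumor cells grown as complex spheroids with endothelial and stromal cells, exposed to drug combinations. Top concentration at or near clinical Cmax (else 10 microM), diluted in half-log increments.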

[1] = second compound 0.0316 µM, first compound 0.0316 µM
[2] = second compound 0.0316 µM, first compound 0.1 µM
[3] = second compound 0.0316 µM, first compound 0.316 µM
[4] = second compound 0.0316 µM, first compound 1 µM
[5] = second compound 0.0316 µM, first compound 3.16 µM
[6] = second compound 0.0316 µM, first compound 10 µM
[7] = second compound 0.1 µM, first compound 0.0316 µM
[8] = second compound 0.1 µM, first compound 0.1 µM
[9] = second compound 0.1 µM, first compound 0.316 µM
[10] = second compound 0.1 µM, first compound 1 µM
[11] = second compound 0.1 µM, first compound 3.16 µM
[12] = second compound 0.1 µM, first compound 10 µM
[13] = second compound 0.316 µM, first compound 0.0316 µM
[14] = second compound 0.316 µM, first compound 0.1 µM
[15] = second compound 0.316 µM, first compound 0.316 µM
[16] = second compound 0.316 µM, first compound 1 µM
[17] = second compound 0.316 µM, first compound 3.16 µM
[18] = second compound 0.316 µM, first compound 10 µM
[19] = second compound 1 µM, first compound 0.0316 µM
[20] = second compound 1 µM, first compound 0.1 µM
[21] = second compound 1 µM, first compound 0.316 µM
[22] = second compound 1 µM, first compound 1 µM
[23] = second compound 1 µM, first compound 3.16 µM
[24] = second compound 1 µM, first compound 10 µM
[25] = second compound 3.16 µM, first compound 0.0316 µM
[26] = second compound 3.16 µM, first compound 0.1 µM
[27] = second compound 3.16 µM, first compound 0.316 µM
[28] = second compound 3.16 µM, first compound 1 µM
[29] = second compound 3.16 µM, first compound 3.16 µM
[30] = second compound 3.16 µM, first compound 10 µM
[31] = second compound 10 µM, first compound 0.0316 µM
[32] = second compound 10 µM, first compound 0.1 µM
[33] = second compound 10 µM, first compound 0.316 µM
[34] = second compound 10 µM, first compound 1 µM
[35] = second compound 10 µM, first compound 3.16 µM
[36] = second compound 10 µM, first compound 10 µM
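Wherever viability, T/C is given: 100% = DMSO vehicle control viability.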

O=C(NO)c1cnc(N2CCN(S(=O)(=O)c3ccc4ccccc4c3)CC2)nc1 + Cc1[nH]c2ccc(F)cc2c1-c1nc2c3cccnc3c3ncccc3c2[nH]1
353 nM: IC50 (second compound 0.0316 µM)
active: viability, T/C [4] 10% | viability, T/C [5] 0.42% | viability, T/C [6] 0.52% | viability, T/C [10] 8.48% | viability, T/C [11] 0.31% | viability, T/C [12] 0.42% | viability, T/C [16] 8.61% | viability, T/C [17] 0.35% | viability, T/C [18] 1.29% | viability, T/C [22] 7.91% | viability, T/C [23] 0.49% | viability, T/C [24] 1.27% | viability, T/C [28] 5.99% | viability, T/C [29] 1.44% | viability, T/C [30] 0.36% | viability, T/C [35] 0.79% | viability, T/C [36] 0.64%
inactive: viability, T/C [1] 82.3% | viability, T/C [2] 82.8% | viability, T/C [3] 53.8% | viability, T/C [7] 102% | viability, T/C [8] 102% | viability, T/C [9] 34.3% | viability, T/C [13] 85.4% | viability, T/C [14] 95.8% | viability, T/C [15] 48.9% | viability, T/C [19] 75.9% | viability, T/C [20] 77.4% | viability, T/C [21] 43% | viability, T/C [25] 83% | viability, T/C [26] 87.8% | viability, T/C [27] 28.2% | viability, T/C [31] 64.7% | viability, T/C [32] 69.7% | viability, T/C [33] 36.7% | viability, T/C [34] 13.9%
195 nM: IC50 (second compound 10 µM)
242 nM: IC50 (second compound 0.1 µM)
311 nM: IC50 (second compound 0.316 µM)
251 nM: IC50 (second compound 1 µM)
204 nM: IC50 (second compound 3.16 µM)

CC(C)n1c(=O)n(C)c2cnc3cc(F)c(-c4ccc(OCCCN5CCCCC5)nc4)cc3c21 + Cc1cnc(CNC(=O)c2c(=O)c3ccc(N4CCCN(C)CC4)nc3n3c2sc2ccccc23)cn1
inactive: viability, T/C [1] 55.4% | viability, T/C [2] 61.4% | viability, T/C [3] 73.1% | viability, T/C [4] 53.7% | viability, T/C [5] 70.2% | viability, T/C [6] 66.4% | viability, T/C [7] 66.8% | viability, T/C [8] 47.8% | viability, T/C [9] 64.3% | viability, T/C [10] 60.6% | viability, T/C [11] 56.3% | viability, T/C [12] 54.6% | viability, T/C [13] 66.7% | viability, T/C [14] 68.9% | viability, T/C [15] 52.3% | viability, T/C [16] 48.5% | viability, T/C [17] 49.8% | viability, T/C [18] 61% | viability, T/C [19] 44.2% | viability, T/C [20] 45.9% | viability, T/C [21] 44.2% | viability, T/C [22] 46.7% | viability, T/C [23] 44.1% | viability, T/C [24] 43% | viability, T/C [25] 35.6% | viability, T/C [26] 25.4% | viability, T/C [27] 54.8% | viability, T/C [28] 44.1% | viability, T/C [29] 60.2% | viability, T/C [30] 51.5% | viability, T/C [31] 37.1% | viability, T/C [32] 43.6% | viability, T/C [33] 46.7% | viability, T/C [34] 52.5% | viability, T/C [35] 59.7% | viability, T/C [36] 68.8%
> 10000 nM: IC50 (second compound 0.0316 µM) | IC50 (second compound 0.1 µM)
< 31.6 nM: IC50 (second compound 1 µM) | IC50 (second compound 3.16 µM) | IC50 (second compound 10 µM)
10000 nM: IC50 (second compound 0.316 µM)

CC1COCCN1c1cc(-c2ccnn2C)c2ccnc(-c3ccn[nH]3)c2n1 (stereo not given) + Cc1cnc(CNC(=O)c2c(=O)c3ccc(N4CCCN(C)CC4)nc3n3c2sc2ccccc23)cn1
232 nM: IC50 (second compound 1 µM)
1720 nM: IC50 (second compound 0.1 µM)
< 31.6 nM: IC50 (second compound 3.16 µM) | IC50 (second compound 10 µM)
inactive: viability, T/C [1] 98% | viability, T/C [2] 58.7% | viability, T/C [3] 77.4% | viability, T/C [4] 60.4% | viability, T/C [5] 38.9% | viability, T/C [6] 24.4% | viability, T/C [7] 58.7% | viability, T/C [8] 82.7% | viability, T/C [9] 95.9% | viability, T/C [10] 67.7% | viability, T/C [11] 29.1% | viability, T/C [12] 30.9% | viability, T/C [13] 112% | viability, T/C [14] 52.6% | viability, T/C [15] 49.8% | viability, T/C [16] 44.2% | viability, T/C [17] 28.3% | viability, T/C [18] 36.6% | viability, T/C [19] 57.7% | viability, T/C [20] 62.4% | viability, T/C [21] 43.1% | viability, T/C [22] 38.1% | viability, T/C [23] 28.2% | viability, T/C [24] 26.2% | viability, T/C [25] 44.2% | viability, T/C [26] 33% | viability, T/C [27] 37.4% | viability, T/C [28] 37.9% | viability, T/C [29] 42.9% | viability, T/C [30] 29.8% | viability, T/C [31] 45.6% | viability, T/C [32] 41.2% | viability, T/C [33] 26.7% | viability, T/C [34] 29.1% | viability, T/C [35] 28.8% | viability, T/C [36] 32.5%
1540 nM: IC50 (second compound 0.0316 µM)
173 nM: IC50 (second compound 0.316 µM)

CC1COCCN1c1cc(C2(S(C)(=N)=O)CC2)nc(-c2ccnc3[nH]ccc23)n1 (stereo not given) + Cc1cnc(CNC(=O)c2c(=O)c3ccc(N4CCCN(C)CC4)nc3n3c2sc2ccccc23)cn1
< 31.6 nM: IC50 (second compound 3.16 µM) | IC50 (second compound 10 µM)
10000 nM: IC50 (second compound 0.0316 µM)
inactive: viability, T/C [1] 90.9% | viability, T/C [2] 84.6% | viability, T/C [3] 89% | viability, T/C [4] 98.5% | viability, T/C [5] 48% | viability, T/C [6] 67.8% | viability, T/C [7] 114% | viability, T/C [8] 91.3% | viability, T/C [9] 84.3% | viability, T/C [10] 59.8% | viability, T/C [11] 55.2% | viability, T/C [12] 78.5% | viability, T/C [13] 79.3% | viability, T/C [14] 92.8% | viability, T/C [15] 67.8% | viability, T/C [16] 82.6% | viability, T/C [17] 79.3% | viability, T/C [18] 66.6% | viability, T/C [19] 48.6% | viability, T/C [20] 57.5% | viability, T/C [21] 74.4% | viability, T/C [22] 44.8% | viability, T/C [23] 48.2% | viability, T/C [24] 57.7% | viability, T/C [25] 35.9% | viability, T/C [26] 39% | viability, T/C [27] 45.5% | viability, T/C [28] 56.4% | viability, T/C [29] 51.4% | viability, T/C [30] 51.1% | viability, T/C [31] 46% | viability, T/C [32] 35.6% | viability, T/C [33] 62.2% | viability, T/C [34] 41% | viability, T/C [35] 58.8% | viability, T/C [36] 37.4%
> 10000 nM: IC50 (second compound 0.1 µM) | IC50 (second compound 0.316 µM) | IC50 (second compound 1 µM)

COc1ccc([C@@H](O)c2cc(-c3ncnc4cc(N5CCOCC5)ccc34)c(F)cc2Cl)nn1 + Cc1cnc(CNC(=O)c2c(=O)c3ccc(N4CCCN(C)CC4)nc3n3c2sc2ccccc23)cn1
< 31.6 nM: IC50 (second compound 10 µM)
10000 nM: IC50 (second compound 0.0316 µM)
3660 nM: IC50 (second compound 0.1 µM)
243 nM: IC50 (second compound 3.16 µM)
4180 nM: IC50 (second compound 0.316 µM)
9070 nM: IC50 (second compound 1 µM)
inactive: viability, T/C [1] 72.4% | viability, T/C [2] 102% | viability, T/C [3] 81.6% | viability, T/C [4] 99.3% | viability, T/C [5] 48.9% | viability, T/C [6] 53% | viability, T/C [7] 75.6% | viability, T/C [8] 70.5% | viability, T/C [9] 62.8% | viability, T/C [10] 50.8% | viability, T/C [11] 55.1% | viability, T/C [12] 44.8% | viability, T/C [13] 109% | viability, T/C [14] 72.9% | viability, T/C [15] 80% | viability, T/C [16] 56.1% | viability, T/C [17] 41.7% | viability, T/C [18] 52% | viability, T/C [19] 56.7% | viability, T/C [20] 49.9% | viability, T/C [21] 48.1% | viability, T/C [22] 47.9% | viability, T/C [23] 67.3% | viability, T/C [24] 41% | viability, T/C [25] 58.4% | viability, T/C [26] 62.2% | viability, T/C [27] 46.9% | viability, T/C [28] 30% | viability, T/C [29] 34.8% | viability, T/C [30] 45.9% | viability, T/C [31] 36.6% | viability, T/C [32] 33.5% | viability, T/C [33] 49.3% | viability, T/C [34] 35.2% | viability, T/C [35] 47.7% | viability, T/C [36] 37.7%
